Assay in all cases: NCI anticancer screen, dose series, 48 h
Experiment [1] deals with OVCAR-5 ovarian.
The test system of experiment [2] is NCI-H522 lung.
In experiment [3] the test system is UACC-257 melanoma.
Experiment [4] concerns 786-0 renal.
The subject of experiment [5] is IGROV1 ovarian.
Experiment [6] relates to HCT-116 colon.
Experiment [7] has as its system LOX IMVI melanoma.
Experiment [8] concerns U251 CNS.
Experiment [9] concerns COLO 205 colon.
Experiment [10] deals with PC-3 prostate.
Experiment [11] relates to DU-145 prostate.
Experiment [12] deals with OVCAR-8 ovarian.
For experiment [13], the system named is MDA-MB-231 breast.
Experiment [14] concerns RXF 393 renal.
Experiment [15] relates to MDA-N.
The test system of experiment [16] is A549 NSCLC.
In experiment [17] the test system is SN12C renal.
Experiment [18] has as its system SF-295 CNS.
Experiment [19] has as its system SK-MEL-2 melanoma.

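Method: 48-hour compound exposure of cells in 96-well plates, five concentrations, linear interpolation of endpoints. At the TGI there is no net growth.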 Where a SMILES comes first, the peptide text is derived from it. [ ]: non-standard residue; d: D form. The star is where a group is joined. Bn2Val = CC(C)[C@@H](C(=O)*)N(Cc1ccccc1)Cc1ccccc1; NHPiperonyl = c1cc2c(cc1CN*)OCO2; NMeV = CN[C@H](C(=O)O)C(C)C; dNMeA = CN[C@H](C)C(=O)O

As to `O=C1CSC(c2c[nH]c3ccccc23)N1c1cccc([N+](=O)[O-])c1` (stereo not drawn), the TGI in experiment [1], in experiment [2], in experiment [3], in [4], in [5] and in experiment [6] was over 100 µM each time. The TGI in experiment [7], in experiment [8], in experiment [9], in [10], in experiment [11] and in experiment [12] was over 100 µM throughout. Further, the TGI in experiment [13], in experiment [14], in experiment [15], in experiment [16], in experiment [17] and in [18] was over 100 µM in each case.

For the compound `O=C(c1ccc(-c2ccccc2)cc1)N(Cc1cccnc1)C(=S)N(Cc1cccnc1)C(=O)c1ccc(-c2ccccc2)cc1`, the TGI in [1], in [19], in experiment [2], in experiment [3], in experiment [4] and in experiment [6] was over 100 µM in each case. For the same compound, the TGI in experiment [7], in experiment [8], in experiment [9], in experiment [10], in experiment [11] and in experiment [12] was over 100 µM each time. Also, the TGI in experiment [13], in experiment [15], in experiment [16], in [17] and in [18] was over 100 µM in each case.

As for `COC(=O)c1c(O)ccc2c1c1cc3ccccc3c(O)c1n2Cc1ccccc1Cl`, the TGI is over 100 µM in experiment [1]; 40.7 µM in experiment [19]; 29.5 µM in experiment [2]; over 100 µM in experiment [3]; 54.1 µM in experiment [4]; 44.8 µM in experiment [5]. For the same compound, the TGI is 28 µM in experiment [6]; over 100 µM in experiment [8]; 30.4 µM in [9]; over 100 µM in experiment [10]; over 100 µM in experiment [11]; over 100 µM in experiment [12]. The TGI in experiment [13] was over 100 µM; in [14], over 100 µM; in experiment [15], 61.8 µM; in experiment [16] it was over 100 µM; in experiment [17], over 100 µM; in experiment [18], 40.3 µM.

`CSc1ccc(/C=C/C(=O)c2nc3ccccc3[nH]2)cc1`: the TGI is 88.2 µM in experiment [1]; 37.7 µM in experiment [19]; 33.5 µM in experiment [2]; 67.1 µM in experiment [3]; 43.6 µM in experiment [4]; over 100 µM in [5]. Also, the TGI in experiment [6] is 31.4 µM; in [7] it was 45.9 µM; in [9], 96 µM; in experiment [10], 68.6 µM; in experiment [11], 13.2 µM; in experiment [12], over 100 µM. The TGI in [13] is 24.3 µM; in experiment [15], over 100 µM; in [16] it was 98.6 µM; in [17] it was over 100 µM; in [18], over 100 µM.

Regarding `O=S(Nc1ccccc1)c1ccccc1Oc1ccccc1` (stereo not drawn), the TGI is over 100 µM in experiment [1]; over 100 µM in experiment [2]; over 100 µM in experiment [3]; over 100 µM in experiment [4]; 12.6 µM in experiment [5]; over 100 µM in [6]. Also, the TGI in [7], in [8], in experiment [9], in experiment [10], in experiment [11] and in experiment [12] was over 100 µM each time. Further, the TGI in experiment [13], in experiment [14], in experiment [15], in experiment [16], in experiment [17] and in experiment [18] was over 100 µM in each case.

On to `CC(C)[C@H](NC(=O)[C@H](C(C)C)N(Cc1ccccc1)Cc1ccccc1)C(=O)N(C)[C@H](C(=O)N1CCC[C@H]1C(=O)N(C)[C@H](C)C(=O)NCc1ccc2c(c1)OCO2)C(C)C` (Bn2Val-V[NMeV]P[dNMeA]-NHPiperonyl), for which the TGI was 23.9 µM in experiment [1]; 25.5 µM in experiment [19]; over 100 µM in experiment [2]; over 100 µM in experiment [3]; over 83.2 µM in experiment [4]; over 100 µM in experiment [5]. Besides, the TGI in experiment [6] is 23.2 µM; in experiment [7] it was over 100 µM; in experiment [8] it was 43 µM; in [10] it was 89.9 µM; in experiment [11], over 33.2 µM; in [12], over 100 µM. For the same compound, the TGI is over 100 µM in experiment [13], 49.4 µM in [15], over 100 µM in experiment [16] and over 100 µM in experiment [18].

Regarding `COC1CC(=O)C2C(=O)N(c3ccccc3)C(=O)C23C(C(=O)c2ccccc2)=C(C)NC13O` (stereo not drawn), the TGI in experiment [1] was determined as 54.5 µM; in experiment [19], 33.6 µM; in [2], 6.3 µM; in experiment [3], 56.2 µM; in [4] it was 5.38 µM; in [5], 27.5 µM. The TGI in experiment [6] is 22.6 µM; in experiment [7], 28.9 µM; in [8] it was 35.5 µM; in experiment [9], 25.1 µM; in experiment [10] it was 34.5 µM; in experiment [11], 27.8 µM. Further, the TGI is over 100 µM in experiment [12]; 40 µM in [13]; 72.2 µM in experiment [15]; over 100 µM in experiment [16]; 37.1 µM in [17]; over 100 µM in [18].

`O=C1c2ccccc2-c2nc(-c3cccs3)cc3c2c1nc1ccccc13`: the TGI was over 100 µM in [1]; 32 µM in experiment [19]; 83.5 µM in experiment [2]; 37.3 µM in experiment [3]; over 100 µM in experiment [4]; 92.5 µM in experiment [5]. In addition, the TGI in [6] was 42.2 µM; in experiment [7], 35.9 µM; in experiment [8], over 100 µM; in [9], 37.5 µM; in experiment [10] it was over 100 µM; in experiment [11], 31 µM. For the same compound, the TGI was over 100 µM in [12]; over 100 µM in [13]; 20.4 µM in [15]; 63.5 µM in [16]; over 100 µM in experiment [17]; over 100 µM in experiment [18].

Turning to `O=P1(N(CCCl)CCCl)Oc2c(Cl)cc(Cl)c(Cl)c2Cc2c(Cl)c(Cl)cc(Cl)c2O1`, the TGI in experiment [1] was over 100 µM; in experiment [19] it was 74.5 µM; in experiment [2], over 100 µM; in experiment [3] it was over 100 µM; in [4] it was over 100 µM; in [6], over 100 µM. In addition, the TGI was over 100 µM in experiment [7]; over 100 µM in [8]; 45.7 µM in [9]; over 100 µM in experiment [10]; over 100 µM in experiment [11]; over 100 µM in [12]. Moreover, the TGI in experiment [13], in [14], in [15], in experiment [16], in [17] and in experiment [18] was over 100 µM in each case.

Turning to `C=C1CC(COc2ccc3c(C)c(Cl)c(=O)oc3c2)(c2ccccc2)OC1=O` (stereo not drawn), the TGI was found to be 25.9 µM in [1]; 3.36 µM in [19]; 3.93 µM in [2]; 4.01 µM in [3]; 2.95 µM in [4]; 3.89 µM in experiment [5]. For the same compound, the TGI in [6] came to 2.42 µM; in experiment [7], 2.82 µM; in experiment [8], 20.4 µM; in experiment [9] it was 1.83 µM; in experiment [10] it was 5.49 µM; in experiment [11] it was 9.66 µM. In addition, the TGI in [12] stood at 5.61 µM; in experiment [13] it was 14.4 µM; in experiment [15], 5.48 µM; in experiment [16] it was 27.9 µM; in [17], 20.1 µM; in experiment [18] it was 22.7 µM.

Consider `O=C1OCCC12CN(Cc1ccccc1)N=N2` (stereo not drawn), for which the TGI in [1], in [19], in experiment [2], in experiment [4], in [6] and in [8] was over 100 µM each time. For the same compound, the TGI in experiment [9], in experiment [10], in [11], in experiment [12], in experiment [13] and in experiment [14] was over 100 µM throughout. For the same compound, the TGI in [15], in experiment [16], in [17] and in experiment [18] was over 100 µM in each case.

In the case of `Cc1ccc(N/N=C/C2=CC(C)(C)C(C#N)(C#N)C(O)=C2C#N)cc1`, the TGI in experiment [1], in experiment [2], in [3], in experiment [4], in [5] and in [6] was over 100 µM in each case. Further, the TGI was over 100 µM in experiment [7]; over 100 µM in experiment [9]; 58.7 µM in experiment [10]; over 100 µM in [11]; over 100 µM in experiment [12]; over 100 µM in experiment [13]. Further, the TGI in experiment [14] is 85.2 µM; in [15], over 100 µM; in experiment [16], over 100 µM; in experiment [17], over 100 µM; in [18], over 100 µM.

As to `CC(=O)N(CN1C(=O)CCC1C(=O)O)c1ccc(C)cc1` (stereo not drawn), the TGI in experiment [1], in [19], in experiment [2], in [3], in experiment [4] and in experiment [5] was over 100 µM throughout. Further, the TGI in experiment [6], in experiment [7], in experiment [8], in experiment [9], in experiment [10] and in [11] was over 100 µM each time. For the same compound, the TGI in experiment [12], in [13], in experiment [15], in experiment [16], in experiment [17] and in experiment [18] was over 100 µM in each case.

As for `CCOP(=O)(OCC)c1cc2cc(O)ccc2oc1=O`, the TGI in experiment [1], in [2], in experiment [3], in [4], in [5] and in experiment [6] was over 100 µM in each case. The TGI in experiment [7], in [8], in experiment [9], in experiment [10], in experiment [11] and in experiment [12] was over 100 µM each time. For the same compound, the TGI in [13], in [14], in experiment [15], in [16], in [17] and in [18] was over 100 µM throughout.

In the case of `O=C(O)COc1cc(-c2ccccc2F)nc2cc3c(cc12)OCO3`, the TGI in experiment [1], in [19], in experiment [3], in experiment [4], in experiment [5] and in [6] was over 100 µM each time. The TGI in experiment [7], in experiment [8], in [9], in [10], in experiment [11] and in experiment [12] was over 100 µM in each case. Moreover, the TGI in experiment [13], in [14], in [15], in [16], in experiment [17] and in experiment [18] was over 100 µM in each case.

For the origin of these results see PubChem BioAssay (NCI).
